Publication PMC6151598, “Soluble Epoxide Hydrolase Inhibitory Activity of Components Isolated from Apios americana Medik” (Molecules : A Journal of Synthetic Chemistry and Natural …, 2017)
Values joined by “and” are separate entries in the source; they are usually repeats but may differ in a detail not shown here. Equal entries are not always repeated.

Columns and labels:
estrogen receptors = system: estrogen receptors; design: method as in PMID 23402539, PMID 26806328; conditions: cited from earlier work
[1] = target: T1, soluble epoxide hydrolase (sEH) (Homo sapiens, UniProt P34913); assay: sEH inhibition assay (fluorometric, PHOME substrate); assay type: biochemical; conditions: for IC50: concentrations 6.2 to 100 μM, triplicate, read-out: IC50, inhibitory activity on sEH; for Inhibitory ratio on sEH: tested at 100 μM, % of the control value
T1 construct: purchased Cayman (Ann Arbor, MI, USA) 10011669
T1 sequence (P34913 1-555): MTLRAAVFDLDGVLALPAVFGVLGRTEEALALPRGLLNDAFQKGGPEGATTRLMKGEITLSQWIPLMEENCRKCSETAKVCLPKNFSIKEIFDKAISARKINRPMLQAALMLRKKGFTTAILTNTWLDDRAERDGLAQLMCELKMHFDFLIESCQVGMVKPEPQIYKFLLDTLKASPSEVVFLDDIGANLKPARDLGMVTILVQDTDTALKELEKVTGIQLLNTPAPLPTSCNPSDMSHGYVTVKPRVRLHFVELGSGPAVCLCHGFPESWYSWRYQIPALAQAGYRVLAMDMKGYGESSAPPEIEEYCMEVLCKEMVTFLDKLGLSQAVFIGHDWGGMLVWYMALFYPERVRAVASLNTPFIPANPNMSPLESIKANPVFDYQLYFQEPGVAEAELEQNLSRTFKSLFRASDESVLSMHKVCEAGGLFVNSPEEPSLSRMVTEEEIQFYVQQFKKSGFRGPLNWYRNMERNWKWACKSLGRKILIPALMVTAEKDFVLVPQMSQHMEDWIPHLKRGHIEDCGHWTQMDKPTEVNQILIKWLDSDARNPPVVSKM
Description: The sEH assay was performed as described previously. Briefly, 130 µL of sEH in 25.0 mM Bis-Tris-HCl buffer (pH 7.0) and 20.0 µL of the compounds (1–0.06 mM concentration) diluted in MeOH, were added in 96-well plate, to which 50.0 µL of 20.0 µM PHOME was added in the mixture. After initiating the enzyme reaction at 37 °C, the products by hydrolysis of the substrate were monitored at excitation and emission of 330 and 465 nm for one hour. Inhibitory activity (%) = 100 − [(C40 − C0) − (S40 − S0)/(C40 − C0)] × 100 (1) where C40 and S40 were the fluorescence of the control and inhibitor, respectively, after 40 min, S0 and C0 is the fluorescence of inhibitor and control, respectively, at 0 min.

[2] = target: T1, soluble epoxide hydrolase (sEH); assay: sEH enzyme kinetics (Lineweaver–Burk and Dixon plots); assay type: biochemical; conditions: for Binding mode (inhibition type): Lineweaver–Burk plot
androgen receptors = system: androgen receptors; design: method as in PMID 23402539, PMID 26806328; conditions: cited from earlier work

Binding mode (inhibition type) [2] | SMILES | Binding activity with estrogen receptors (estrogen receptors) | IC50 [1] | Inhibitory ratio on sEH [1] | Blocking of [3H]-dihydrotestosterone binding with androgen receptors (androgen receptors) | also measured
– | O=c1c(-c2ccc(O)cc2O)coc2cc(O)cc(O)c12 [2′-hydroxygenistein] | binding activities | – | – | – | –
competitive inhibitor | COc1cc(O)cc2c1C(=O)C1(O)c3ccc(O)cc3OC1O2 (centres unmarked) [Compound 1, 5-methoxy-2,5,7,4′-tetrahydroxy-coumaronochromone] | – | < 50 µM and 43.2 µM | over 50% | – | Ki ([2]; inhibitor 0, 25, 50 μM, substrate 3.1 to 25 μM, read-out: Ki (Dixon plot)): 21 µM
mixed inhibitor | O=c1c(-c2ccc(O)cc2)coc2cc(O)cc(O)c12 [Compound 2, genestein] | binding activities | – | – | – | –
– | O=c1c(-c2ccc(O)cc2O)coc2cc(O[C@@H]3O[C@H](CO)C(O)[C@H](O)C3O)cc(O)c12 (some centres unmarked) [Compound 6, 2′-hydroxygenistein-7-O-glucoside] | – | – | – | blocked the binding | –
– | O=c1c(-c2ccc(O)cc2O)coc2cc(O[C@@H]3O[C@H](CO[C@@H]4O[C@H](CO)[C@@H](O)[C@H](O)[C@H]4O)[C@@H](O)[C@H](O)[C@H]3O)cc(O)c12 [Compound 7, 2′-hydroxygenistein-7-O-gentibioside] | – | – | – | blocked the binding | –
– | O=C(O)c1ccc(O)cc1 [Compound 8, 4-hydroxybenzoic acid] | – | 69.3 ± 1.9 µM | over 50% | – | –
